Entries after “also recorded” stand apart in the source; their conditions may differ. Marks after values point to notes of the source that are not given here.
Assays:
urinary sCD163 = assay: Urine sCD163/creatinine ratio (ELISA) in clinical trial of AAV patients; assay type: in vivo, human; conditions: for Urine sCD163/creatinine, Geo mean: all on IV cyclophosphamide or rituximab; for Time course of decrease of urine sCD163 (sCD163/creatinine), in words: versus baseline
Description: The clinical trial results presented herein comprised 3 patient groups: (1) Full dose prednisone (60 mg), standard of care; (2) Avacopan 30 mg b.i.d. plus low dose prednisone (20 mg); (3) Avacopan 30 mg b.i.d. plus no prednisone. All patients received either IV cyclophosphamide or IV rituximab. sCD163 (ELISA) and creatinine were measured pre-dose, and at days 8, 15, 29, 57, and 85. The groupings are further described below in Table 1. [table] Mid-stream urine samples were collected with a clean catch method and were shipped to the central laboratory refrigerated the same day for analysis of creatinine, albumin and UACR. Another fraction of urine was centrifuged at 1200 g and 2-8° C. for 10 minutes. Supernatant was aliquoted into cryovials and stored at -70° C. until analysis. Urine sCD163 and MCP-1 were analyzed by ELISA in complete subject sets using ELISA kits from R&D systems. Urine sCD163/creatinine ratios, UACR, and urine MCP-1/creatinine ratios were log transformed for normal distribution. Change from baseline in urine sCD163/creatinine ratios for each time point within group was analyzed by the mixed effects model for repeated measures. P<0.05 was considered as statistically significant.

[1] = system: ANCA-associated vasculitis (AAV); assay: Disease activity and health-related quality of life in clinical trial of AAV patients; assay type: in vivo, human
Description: The clinical trial results presented herein comprised 3 patient groups: (1) Full dose prednisone (60 mg), standard of care; (2) Avacopan 30 mg b.i.d. plus low dose prednisone (20 mg); (3) Avacopan 30 mg b.i.d. plus no prednisone. All patients received either IV cyclophosphamide or IV rituximab. sCD163 (ELISA) and creatinine were measured pre-dose, and at days 8, 15, 29, 57, and 85. The groupings are further described below in Table 1. [table] […] Panel A plots the Birmingham Vasculitis Activity Score; Panel B plots the Urinary Albumin: creatinine Ratio; Panel C plots the Health-related quality-of-life measurement EQ-5D-5L visual analog scale , expressed as mean +/- SEM over the treatment period; Panel D and Panel E plot the health-related quality-of-life measurement Medical Outcomes Study SF-36 version 2 Physical Functioning and Role Emotional components, expressed as mean +/- SEM over the treatment period.

[2] = D8, Avacopan 30 mg BID where given
[3] = D15, Avacopan 30 mg BID where given
[4] = D29, Avacopan 30 mg BID where given
[5] = D57, Avacopan 30 mg BID where given
[6] = D85, Avacopan 30 mg BID where given

Row | Compound | Urine sCD163/creatinine, Geo mean (urinary sCD163; [2]) | Urine sCD163/creatinine, Geo mean (urinary sCD163; [3]) | Urine sCD163/creatinine, Geo mean (urinary sCD163; [4]) | Urine sCD163/creatinine, Geo mean (urinary sCD163; [5]) | Urine sCD163/creatinine, Geo mean (urinary sCD163; [6]) | Time course of decrease of urine sCD163 (sCD163/creatinine), in words (urinary sCD163) | Disease activity (Birmingham Vasculitis Activity Score), in words ([1]; FIG. 1A) | Health-related quality of life (EQ-5D-5L, SF-36 v2), in words ([1]; FIGS. 1C-1E) | Time course of decrease of urine sCD163 (sCD163/creatinine), in words (urinary sCD163; listed as full-dose prednisone)
1 | Cc1ccc(NC(=O)[C@H]2CCCN(C(=O)c3c(C)cccc3F)[C@H]2c2ccc(NC3CCCC3)cc2)cc1C(F)(F)F [Avacopan] | 180* ng/mmole | 165* ng/mmole | 117** ng/mmole | 125* ng/mmole | 97* ng/mmole | reduced sCD163/creatinine markedly by day 8; also recorded: rapid reduction of sCD163; also recorded: decreased within one week | rapid decrease in diseases activity | significant improvement in health-related quality of life | 
2 | C[C@]12C=CC(=O)C=C1CC[C@@H]1[C@@H]2C(=O)C[C@@]2(C)[C@H]1CC[C@]2(O)C(=O)CO [Placebo + FD Prednisone, Prednisone, reference compound] | 300 ng/mmol | 249 ng/mmol | 220 ng/mmol | 116*** ng/mmole | 120** ng/mmole | decreased much later (by week 8) |  |  | did not show improvement in urinary sCD163 until day 57

Reference: US20230105869A1, “C5aR INHIBITOR REDUCTION OF URINARY sCD163” (CHEMOCENTRYX, INC., priority 2017, published 2023)
